Test results published in paper PMC10222454, “Characterization of the Molecular Diversity and Degranulation Activity of Mastoparan Family Peptides from Wasp Venoms” (Toxins, 2023).
Read-outs that look alike come from different tables or passages of the source. Ends that are not written are not given here.

Columns and labels:
[1] = tested on: RBL-2H3 cells; assay type: cell-based, rat
Method: (§1) RBL-2H3 cells (rat mucosal-type mast cell line) and P815 cells (mouse mast cell tumor cell line) were obtained from the BeNa Culture Collection (Xinyang, China). RBL-2H3 cells were cultured in DMEM (Gibco, Wuhan, China) supplemented with 15% FBS (Gibco), and P815 cells were maintained in RPMI 1640 basic medium supplemented with 10% FBS and antibiotics (100 mg/L streptomycin and 1 × 10^5 U/L penicillin) in a humidified atmosphere (5% CO2, 37 °C).
(§2) Degranulation was analyzed by measuring the release of the granule marker N-acetyl-D-glucosaminidase (β-hexosaminidase), which colocalizes with histamine, as described in [24]. For this, 2 × 10^5 P815 cells/mL or 1.5 × 10^5 RBL-2H3 cells/mL were seeded in 96-well cell culture plates. Twelve hours later, the cells were incubated with various concentrations of mastoparans dissolved in 100 μL HEPES buffer (137 mM NaCl, 2.7 mM KCl, 1 mM MgCl2, 1.8 mM CaCl2, 20 mM HEPES, 1 mg/mL BSA, and 1 mg/mL glucose, pH 7.4) for 15 min at 37 °C and 5% CO2. Then, the reactions were quenched by the addition of 0.15 mL of ice-cold HEPES buffer. After centrifugation, the supernatants were sampled for the β-hexosaminidase assay. Briefly, 50 μL samples of the cell culture supernatants and 50 μL of the substrate, 5 mM p-nitrophenyl-N-acetyl-b-D-glucosaminide (Sigma) in 0.2 M citrate, pH 4.5, were incubated in 96-well plates at 37 °C and 5% CO2 for 16–18 h to yield the chromophore p-nitrophenol, and the reactions were stopped by the addition of 100 μL of 0.2 M glycine solution, pH 10.7. The absorbance of the colored product was assessed at 405 nm using a microtiter plate reader. The values for β-hexosaminidase released in the medium are expressed as the percentage of total β-hexosaminidase, which was measured in the cells after lysis in 0.1% Triton X-100. The experiment was repeated three times, and the results represent the mean and standard deviation (SD) of quadruplicate tests. The percent degranulation was calculated according to the following equation:Degranulation Rate (%) = 100% × (Amastoparans − AHEPES)/(ATriton X-100 − AHEPES).
Statistical analysis was performed with GraphPad Prism software. The curve of mast cell degranulation induced by wasp mastoparans was generated in SigmaPlot 12.5 software, and the EC50 was calculated according to the following equation (Four-Parameter Logistic Curve): y = min + (max − min)/(1 + (x/EC50) […] Hillslope).

[2] = tested on: P815 cells; experiment: Mast cell degranulation activity (β-hexosaminidase release) in P815 cells; assay type: cell-based, mouse
Method: as §1, §2

[3] = P815 cells, 80 μg/mL peptide, 15 min at 37 °C, % of total β-hexosaminidase (0.1% Triton X-100 lysis)
[4] = RBL-2H3 cells, 80 μg/mL peptide, 15 min at 37 °C, % of total β-hexosaminidase (0.1% Triton X-100 lysis)

INLLKIAKGIIKSL-NH2 [EMP-AF]
EC50 ([1]; pH 7.4): 76.9 ± 19.6 µM

INWLKLGKKVIAAL-NH2 [Protopolybia-MP III-6]
EC50 [1]: 69.1 ± 12.3 µM

INWLKLGKMVIDAL-NH2 [Polybia-MPII]
EC50 ([1]; pH 7.4): 6.79 ± 0.4 µM

INWLKLGKKVSDAL-NH2 [Protopolybia-MP III-5]
EC50 [1]: > 325 µM
EC50 (μg/mL), Protopolybia-MPIII and mutations [1]: >500 µg/mL
degranulation activity of mutant compared with Protopolybia-MPIII, in words ([1]; mutants of Protopolybia-MPIII, Table 3): almost lost

INWLKLGKAVSAAL-NH2 [Protopolybia-MP III-8]
EC50 [1]: 140 ± 7.06 µM

INWKGIAAMAKKLL-NH2 [Mastoparan-X(V)]
EC50 ([1]; pH 7.4): 78.8 ± 15 µM

INWLKLGKKMMSAL-NH2 [MP]
EC50 ([1]; pH 7.4): 66.8 ± 30.7 µM

FDVMGIIKKIASAL-NH2 [EMP-EF]
EC50 ([1]; pH 7.4): 25.1 ± 1.59 µM

INWLKLGKAVIAAL-NH2 [Protopolybia-MP III-3]
EC50 [1]: 15.3 ± 3.53 µM

INWHDIAIKNIDAL-NH2 [Polybia-MPV]
Degranulation at 80 μg/mL, P815 [2, 3]: <20%
Degranulation at 80 μg/mL, RBL-2H3 [1, 4]: 1%
EC50 ([1]; pH 7.4): > 200 µM
EC50 (μg/mL), RBL-2H3 ([1]; pH 7.4): >300 µg/mL

INWLKLGKAVSDIL-NH2 [Protopolybia-MP III-9]
EC50 [1]: 49.6 ± 1.73 µM

KDLHTVVSAILQAL-NH2 [OdVP3]
Degranulation at 80 μg/mL, P815 [2, 3]: <20%
Degranulation at 80 μg/mL, RBL-2H3 [1, 4]: 5%
EC50 ([1]; pH 7.4): > 200 µM
EC50 (μg/mL), RBL-2H3 ([1]; pH 7.4): >300 µg/mL

CC[C@H](C)[C@H](N)C(=O)N[C@@H](CC(N)=O)C(=O)N[C@@H](CC(C)C)C(=O)N[C@@H](CCCCN)C(=O)N[C@@H](C)C(=O)N[C@@H](CC(C)C)C(=O)N[C@@H](C)C(=O)N[C@@H](C)C(=O)N[C@@H](CC(C)C)C(=O)N[C@@H](C)C(=O)N[C@@H](CCCCN)C(=O)N[C@@H](CCCCN)C(=O)N[C@H](C(=O)N[C@@H](CC(C)C)C(N)=O)[C@@H](C)CC [Mastoparan(-L), reference compound]
EC50 ([1]; pH 7.4): 52.1 ± 3.21 µM

IDWLKLRVISVIDL-NH2 [Polybia-MPIV]
Degranulation at 80 μg/mL, P815 [2, 3]: <20%
Degranulation at 80 μg/mL, RBL-2H3 [1, 4]: 6%
EC50 ([1]; pH 7.4): > 200 µM
EC50 (μg/mL), RBL-2H3 ([1]; pH 7.4): >300 µg/mL

INWLKLGKKVSDIL-NH2 [Protopolybia-MP III-13]
EC50 [1]: 145 ± 24.4 µM

INWLKLGKAVIAIL-NH2 [Protopolybia-MP III-10]
EC50 [1]: 8.39 ± 0.93 µM

INWKALLDAAKKVL-NH2 [Protonectarina-MP]
EC50 ([1]; pH 7.4): 46.4 ± 3.1 µM

INWLKLGKKVIAIL-NH2 [Protopolybia-MP III-12]
EC50 [1]: 47.7 ± 14.1 µM

GRILSFIKGLAEHL-NH2 [EMP-OD]
Degranulation at 80 μg/mL, P815 [2, 3]: <20%
Degranulation at 80 μg/mL, RBL-2H3 [1, 4]: 4%
EC50 ([1]; pH 7.4): > 200 µM
EC50 (μg/mL), RBL-2H3 ([1]; pH 7.4): >300 µg/mL

INWKKIFQKVKNLV-NH2 [PDD-A]
EC50 ([1]; pH 7.4): 65.8 ± 19.5 µM

INWLKLGKAVSDAL-NH2 [Protopolybia-MP III-2]
EC50 [1]: 193 ± 28.8 µM

INLKAIAALAKKLL-NH2 [Mastoparan-M]
Degranulation at 80 μg/mL, P815 [2]: <20%
Degranulation at 80 μg/mL, RBL-2H3 [1]: 10%
EC50 ([1]; pH 7.4): > 200 µM
EC50 (μg/mL), RBL-2H3 ([1]; pH 7.4): >300 µg/mL

INWKKIAEIGKQVLSAL-NH2 [Dominulin B]
Degranulation at 80 μg/mL, P815 [2, 3]: <20%
Degranulation at 80 μg/mL, RBL-2H3 [1, 4]: 24%
EC50 (μg/mL), RBL-2H3 ([1]; pH 7.4): 148.45 ± 51.31 µg/mL

INLKAIAALAKKLF-NH2 [Mastoparan-AF]
EC50 ([1]; pH 7.4): 18.1 ± 3.94 µM

INWLKLGKAVIDAL-NH2 [Protopolybia-MPIII]
EC50 [1]: 21.7 ± 3.44 µM
EC50 ([1]; pH 7.4): 22.5 ± 2.96 µM

INWLKLGKAVIDIL-NH2 [Protopolybia-MP III-4]
EC50 [1]: 28.1 ± 3.71 µM

VDWKKIGQHILSVL-NH2 [Mastoparan-J]
EC50 ([1]; pH 7.4): 37.3 ± 5.13 µM

INWAKLGKLALQAL-NH2 [Ropalidia-MP]
EC50 ([1]; pH 7.4): 33 ± 5.79 µM

INWKKIKSLIKAAMS-NH2 [MP-V2]
EC50 ([1]; pH 7.4): 88.9 ± 61.3 µM

CC[C@H](C)[C@H](NC(=O)[C@H](CC(=O)O)NC(=O)[C@@H](N)Cc1ccccc1)C(=O)N[C@@H](CCSC)C(=O)NCC(=O)N[C@@H](CC(C)C)C(=O)N[C@H](C(=O)N[C@@H](CCCCN)C(=O)N[C@@H](CCCCN)C(=O)N[C@H](C(=O)N[C@@H](C)C(=O)NCC(=O)N[C@@H](C)C(=O)N[C@@H](CC(C)C)C(N)=O)C(C)C)[C@@H](C)CC [EMP-ER]
EC50 ([1]; pH 7.4): 76.2 ± 5.81 µM

LNLKGLIKKVASLLN-OH [Eumenitin-R]
Degranulation at 80 μg/mL, P815 [2, 3]: <20%
degranulation of RBL-2H3 / mast cells, in words ([1]; RBL-2H3 cells): hardly induced mast cell degranulation
Degranulation at 80 μg/mL, RBL-2H3 [1, 4]: 14%
EC50 (μg/mL), RBL-2H3 ([1]; pH 7.4): >300 µg/mL

INWKKIKSIIKAAMN-NH2 [MP-V1]
EC50 ([1]; pH 7.4): 130 ± 46.6 µM

IDWKKLLDAAKQIL-NH2 [Polybia-MPI]
EC50 ([1]; pH 7.4): 23.2 ± 2.09 µM
